Consider two compounds from patent EP0387762A2, “Medicament with positive inotropic activity, containing a synergistically active mixture consisting of a benzimidazole and a beta-blocker, its preparation and use” (Dr. Karl Thomae GmbH, priority 1989, dated 1990).

SMILES strings stand for the structures.

A short description of data set [1]: Acute toxicity, p.o., mouse. The conditions noted are these: in vivo, po, Maus, read-out: LD₅₀ p.o. From the text:
(§1) Die erfindungsgemäß einsetzten Verbindungen sind gut verträglich. So weist beispielsweise die Verbindung A folgende akute Toxizitäten auf: […]

Data set [2] can be described thus: Acute toxicity, i.v., rat. As to conditions: in vivo, iv, Ratte, read-out: LD₅₀ i.v.
Text: as §1

As to `COc1ccc(-c2nc3ccc(C4=NNC(=O)CC4C)cc3[nH]2)cc1` (stereo not drawn) [Verbindung A, 2-(4-Methoxyphenyl)-5-(5-methyl-3-oxo-4,5-dihydro-2H-6-pyridazinyl)-benzimidazol], the values for the LD50 in data set [1] and in data set [2] were 600 mg/kg and 72 mg/kg, respectively. As for `CC1CC(=O)NN=C1c1ccc2nc(-c3ccc(O)cc3)[nH]c2c1` (stereo not drawn) [Verbindung B, 2-(4-Hydroxyphenyl)-5-(5-methyl-3-oxo-4,5-dihydro-2H-6-pyridazinyl)-benzimidazol], the LD50 in data set [2] was over 100 mg/kg.
